Laboratory results as given in PubChem BioAssay AID1963832 (Molecular Pharmacology Branch, DTP, NCI, 2024).
Where “and” joins values, the source holds several entries; their conditions need not be identical. Equal values may be shown once.

System: 885724-159-R-J1-PDC complex spheroid viability
Experiment: Anticancer human tumor 885724-159-R-J1-PDC patient-derived pancreatic adenocarcinoma cell line growth inhibition [POLQ]
Conditions: for viability, T/C: stronger effect = lower value; for IC50: curve of compound
Experimental: Multicellular complex tumor spheroid response to Polymerase (POL) inhibitors (novobiocin, ART-558, RP6685) in combination with a variety of drugs and investigational agents in selected tumor cell lines
The POL inhibitors (novobiocin, ART-558, and RP6685) were evaluated both individually and in combination with standard of care and investigational anticancer small molecules within a complex spheroid model of solid tumors. . Complex spheroids include a stromal component modeled by human endothelial cells (HUVEC) and fibroblasts modeled by human mesenchymal stem cells (MSCs). The concentration ranges selected for each drug and investigational agent were based upon clinically achievable concentrations if the clinical Cmax of the agent was known.
Compounds. The drugs and investigational agents: novobiocin (NSC847541), ART-558 (NSC835418), RP-6685 (NSC848927), peposertib (NSC802822), ceralasertib (NSC780249), elimusertib (NSC800525), camonsertib (NSC841442), AZD-1390 (NSC803789), olaparib (NSC753686), talazoparib (NSC767125), rucaparib (NSC756644), sotorasib (NSC818433), MRTX-1133 (NSC836407), SN-38 (NSC673596), topotecan (NSC609699), epotoside (NSC141540), doxorubicin (NSC123127), gemcitabine (NSC613327), 5-fluorouracil (NSC19893), paclitaxel (NSC125973), vemurafenib (NSC761431), MSA-2 (NSC828583), SN-011 (NSC837082), adavosertib (NSC754352), prexasertib (NSC758257), carboplatin (NSC241240) and oxaliplatin (NSC266046), were obtained from the National Cancer Institute (NCI) Developmental Therapeutics Program Chemical Repository (21). The FDA-approved anticancer drug set is available from the Developmental Therapeutics Program at https://dtp.cancer.gov/organization/dscb/obtaining/. […] The stock solutions were prepared in dimethyl sulfoxide (DMSO, Sigma-Aldrich, St. Louis, MO, cat. D2650), except for the platinum compounds which were prepared in saline (Quality Biological, Gaithersburg, MD, cat. 114-055-101), at 800-fold the tested concentration and stored at -70 degrees C prior to their use. All drugs and investigational agents were tested over a range starting from a high concentration at or near the clinical Cmax and decreasing in half-log increments. If the clinical Cmax for an agent had not been determined, the highest concentration tested was 10 microM, except for SN-38, which was tested at a high concentration of 1 microM.
Cell Culture. All cells were maintained in an incubator at 37 degrees C and 5% CO2 with 95% humidity. The PDC lines were cultured according to standard operating procedures established by the NCI PDMR (https://pdmr.cancer.gov). Table 3 of the manuscript, lists the cell lines along with the number of the three cell types plated to form the mct-spheroids and media for tumor cell growth. After thawing, all PDC lines, except 997537-175-T-J1-PDC and 415267-285-R-J2-PDC, were cultured in Matrigel-coated flasks prepared with a working solution of 1X Ham's F-12 nutrient mix, without supplementation (Thermo Fisher Scientific, cat. 11765054), 100 U/mL penicillin-streptomycin (Thermo Fisher Scientific, cat. 15140122), and 2.5% Matrigel (Corning Inc., Corning, NY, cat. 354248) for the first three passages. The two PDC lines 997537-175-T-J1-PDC and 415267-285-R-J2-PDC were cultured on uncoated flasks. The 857933-349-R-J2-PDC line was cultured in 6C/Colon 1B media containing advanced DMEM/F-12 (Thermo Fisher Scientific, cat. 12634028), 10 mM HEPES (Thermo Fisher Scientific, cat. 15630080), 1X GlutaMAX supplement (Thermo Fisher Scientific, cat. 35050061), 0.1 mg/mL primocin (InvivoGen, San Diego, CA, cat. ant-pm-2), 10% defined fetal bovine serum, heat inactivated (HyClone Laboratories Inc., Logan, UT, cat. SH30070.03HI), 50% L-WRN conditioned media (ATCC, cat. CRL-3276), 1.25 mM N-Acetyl-L-cysteine (Sigma-Aldrich, cat. A9165), 10 mM nicotinamide (Sigma-Aldrich, cat. N0636), 1X B-27 supplement (Thermo Fisher Scientific, cat. 17504044), 1X N-2 supplement (Thermo Fisher Scientific, cat. […]
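Note: spheroids exposed to compounds for 7 days.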

Compound	viability, T/C (compound 0.0316 µM)	viability, T/C (compound 0.1 µM)	viability, T/C (compound 0.316 µM)	viability, T/C (compound 1 µM)	viability, T/C (compound 3.16 µM)	viability, T/C (compound 10 µM)	IC50	viability, T/C (compound 0.00316 µM)	viability, T/C (compound 0.01 µM)	viability, T/C (compound 0.00949 µM)	viability, T/C (compound 0.03 µM)	viability, T/C (compound 0.0949 µM)	viability, T/C (compound 0.3 µM)	viability, T/C (compound 0.949 µM)	viability, T/C (compound 3 µM)	viability, T/C (compound 0.000316 µM)	viability, T/C (compound 0.001 µM)
C#Cc1c(F)ccc2cc(O)cc(-c3ncc4c(N5CC6CCC(C5)N6)nc(OCC56CCCN5CC(F)C6)nc4c3F)c12 (stereo unspecified)	106% and 94.3% and 96.4%	99.8% and 92.7% and 89.8%	85.4% and 94.8% and 91.8%	67.7% and 67.8% and 78.2%	38.5% and 45.1% and 45.6%	20.5% and 24.2% and 20.4%	2020 nM and 2370 nM and 2710 nM										
C=CC(=O)N1CCN(c2nc(=O)n(-c3c(C)ccnc3C(C)C)c3nc(-c4c(O)cccc4F)c(F)cc23)C(C)C1 (stereo unspecified)	101% and 99.6% and 109%	87.9% and 97.3% and 91.8%	95.6% and 105% and 106%	98.9% and 116% and 108%	105% and 94.4% and 114%	90.5% and 92.3% and 86.1%	> 10000 nM										
C=CCn1c(=O)c2cnc(Nc3ccc(N4CCN(C)CC4)cc3)nc2n1-c1cccc(C(C)(C)O)n1	93.3% and 87.4% and 93.7%	85.1% and 77.1% and 79.6%	55.8% and 56.4% and 55.1%	44.7% and 48.3% and 49.7%			577 nM and 767 nM and 846 nM	96.5% and 99.3% and 105%	95.4% and 94.4% and 90.4%								
CC(=O)O[C@H]1C(=O)[C@@]2(C)[C@H]([C@H](OC(=O)c3ccccc3)[C@]3(O)C[C@H](OC(=O)[C@H](O)[C@@H](NC(=O)c4ccccc4)c4ccccc4)C(C)=C1C3(C)C)[C@]1(OC(C)=O)CO[C@@H]1C[C@@H]2O							> 3000 nM			65.2% and 64.9% and 66%	56.1% and 54% and 50.9%	56.4% and 63.5% and 54.9%	63.1% and 64.1% and 57.5%	67.5% and 71.9% and 63.7%	68.5% and 70.2% and 60.7%		
CC(C)n1c(=O)n(C)c2cnc3cc(F)c(-c4ccc(OCCCN5CCCCC5)nc4)cc3c21	94.5% and 97.2% and 114%	99.6% and 106% and 103%	98.5% and 110% and 99.5%	102% and 97.6% and 97.8%	93.2% and 94.7% and 105%	67% and 74.3% and 92.4%	> 10000 nM										
CC1COCCN1c1cc(-c2ccnn2C)c2ccnc(-c3ccn[nH]3)c2n1 (stereo unspecified)	73.3% and 80% and 94.5%	57.2% and 56.3% and 59.7%	49.6% and 42.2% and 46.3%	44.4% and 39.4% and 45.7%	43.7% and 39.8% and 43.8%	38.9% and 38.2% and 38.7%	283 nM and 167 nM and 246 nM										
CC1COCCN1c1cc(C2(O)CC3CCC(C2)O3)c2cnn(-c3ccn[nH]3)c2n1 (stereo unspecified)	74.4% and 70.9% and 67.4%	52.9% and 50.4% (2×)	48.7% and 37.5% and 44.3%	41.8% and 37.1% and 40.4%	37.3% and 33.5% and 35.4%	28.7% and 26.5% and 27.9%	226 nM and 106 nM and 156 nM										
CC1COCCN1c1cc(C2(S(C)(=N)=O)CC2)nc(-c2ccnc3[nH]ccc23)n1 (stereo unspecified)	96.4% and 90.3% and 97.2%	100% and 94.7% and 97.1%	93.7% and 85.1% and 88.2%	73.4% and 67.6% and 74.4%	55% and 54.6% and 54.8%	45.8% and 44.7% and 42.3%	5730 nM and 4930 nM										
CCCS(=O)(=O)Nc1ccc(F)c(C(=O)c2c[nH]c3ncc(-c4ccc(Cl)cc4)cc23)c1F	93.7% and 104% and 95.6%	117% and 108% and 115%	124% (2×) and 122%	158% and 146% and 140%	158% and 144% and 133%	90.7% and 102% and 68.9%	> 10000 nM										
CC[C@@]1(O)C(=O)OCc2c1cc1n(c2=O)Cc2cc3c(CN(C)C)c(O)ccc3nc2-1	80.4% and 78.2% and 74.8%	57.3% and 62.5% and 57.7%					> 100 nM	98.8% and 97.1% and 92.2%	89.7% and 86.8% and 86.5%							97.3% and 109% and 93.8%	102% and 92% and 99%
CCc1c2c(nc3ccc(O)cc13)-c1cc3c(c(=O)n1C2)COC(=O)[C@]3(O)CC	53.4% and 55% and 47.8%	47.3% and 54.5% and 50.5%	32% and 33.2% and 35.3%	5.28% and 5.56% and 4.88%			55.4 nM and 88.2 nM and 65.5 nM	76.2% and 80.4% and 69%	56% and 61.6% and 54.3%								
CCc1cc2c(N3CCc4c(cc(Cn5ccnc5)cc4-c4cn(C)nc4C(F)(F)F)C3=O)cc(C)nc2c(OC)n1	78.8% and 91% and 78.9%	81.9% and 91.9% and 92.2%	79.6% and 85.4% and 85.2%	81.4% and 83.5% and 75.8%	76.3% and 76.6% and 80.9%	72.1% and 69.1% and 62.2%	> 10000 nM										
CCc1cc2c(N3CCc4c(cc(Cn5ccnc5)cc4-c4cn(C)nc4C(F)(F)F)C3=O)ccnc2c(OC)n1	93.9% and 86.6% and 89.7%	80.4% and 79.6% and 85%	87.7% and 80.6% and 84.8%	72.1% and 82.8% and 82.3%	76.9% and 72.9% and 80%	64.6% and 72.9% and 65%	> 10000 nM										
